Where two headings read alike, the source gives them in different places.

In assay [1] the test system is TF1 JAK2 V617F STAT5 reporter. The assay is described as follows: Cellular TF1 STAT5 assay (luciferase reporter), JAK2 V617F. As to conditions: read-out: Cell PD TF1 V617F STAT5 (IC50). Type of assay: cell-based. Put shortly: (§1)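 Inhibition of JAK2 V617F-mediated STAT3/STAT5 signalling is measured by reporter luminescence in TF1 erythroleukemia cells treated overnight (18-20 h) with a 10-point compound series; DMSO serves as vehicle.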
On the technique in general: Reporter assays use an easily measured gene product as a stand-in for the process of interest.

Assay [2] addresses T1, JAK2 JH2 WT (V536-D812) [W659A, W777A, F794H solubilizing mutations] (Homo sapiens, UniProt O60674, F794H/W659A/W777A).
T1 construct: **JAK2 JH2 WT (V536-D812) [W659A, W777A, F794H solubilizing mutations]; C-thrombin-avi-His6; thrombin cleavage site (C); His6 (C); purchased Biortus
Briefly: Surface Plasmon Resonance (SPR) binding assay, JAK2 JH2 domain. Put shortly:
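Kinetics came from 1:1 fits of single-cycle runs at 20 °C: four 3-fold dilutions from 5 uM for JH1 or 500 nM for JH2, 60 s association, and 300 s or 1200 s dissociation respectively. Protein was freshly captured per compound in the presence of 10 uM stabilizer compound, with running buffer of pH 7.5 HEPES/NaCl/glycerol/DTT plus 2% DMSO.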

Assay [3] concerns TF1 JAK2 V617F STAT3 reporter. Briefly: Cellular TF1 STAT3 assay (luciferase reporter), JAK2 V617F. The format is cell-based. To be noted: read-out: Cell PD-TF1 JAK2 V617F STAT3 (IC50). Put shortly:
as §1

Setting [4] is: Homo sapiens, TF-1, TF1 cells, JAK2 V617F.

T1 sequence (O60674 536-812 W659A/W777A/F794H): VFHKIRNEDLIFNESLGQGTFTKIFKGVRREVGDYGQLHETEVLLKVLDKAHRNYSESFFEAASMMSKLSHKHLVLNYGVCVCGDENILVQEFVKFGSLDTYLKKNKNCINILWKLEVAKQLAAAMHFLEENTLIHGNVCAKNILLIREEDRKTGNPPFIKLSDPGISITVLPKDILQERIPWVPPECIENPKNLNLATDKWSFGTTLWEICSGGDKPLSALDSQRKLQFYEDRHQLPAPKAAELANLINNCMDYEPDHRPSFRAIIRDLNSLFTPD

With `CNC(=O)c1nnc(NC(=O)C2CC2)cc1Nc1cccc(-c2cc(C3CN(Cc4cccc(C#N)n4)C3)nn2C)c1OC` [Compound 191], the IC50 lay in the range of 5 to 100 µM in assay [1] (TF1 JAK2 V617F) and 5000 to 100000 nM in assay [3] (TF1 JAK2 V617F). In assay [2] (SPR, JAK2 JH2 domain), this molecule came in with a Kd of 10 to 50 nM.

Regarding `CNC(=O)c1nnc(NC(=O)C2CC2)cc1Nc1cccc(-c2cnn(C3CN(Cc4ncccc4C(=O)N(C)C)C3)c2)c1OC` [Compound 299], the concentration for half-maximal inhibition (IC50) in assay [1] (setting [4]) fell in the range of 0.5 to 5 µM; in assay [3] (setting [4]), 500 to 5000 nM. The same molecule registered a Kd in assay [2] of 0.01 to 10 nM.

Consider `CNC(=O)c1nnc(NC(=O)C2CC2)cc1Nc1cccc(-c2cnn(C3CN(Cc4ncccc4C(F)(F)F)C3)c2)c1OC` [Compound 302], for which the figures for the IC50 in assay [1] (setting [4]) and in assay [3] (setting [4]) were 0.5 to 5 µM and 500 to 5000 nM, respectively. This molecule returned a Kd in assay [2] of 0.01 to 10 nM.

Turning to `CNC(=O)c1cnc(NC(=O)C2CC2)cc1Nc1cccc(-c2cnn(C3CN(Cc4ccccn4)C3)c2)c1OC` [Compound 190], the concentration for half-maximal inhibition (IC50) fell in the range of 0.5 to 5 µM in assay [1] (TF1 JAK2 V617F) and 500 to 5000 nM in assay [3] (TF1 JAK2 V617F). The molecule further displayed a Kd in assay [2] (SPR, JAK2 JH2 domain) of 0.01 to 10 nM.

Take `CNC(=O)c1nnc(NC(=O)C2CC2)cc1Nc1ccc(C)c(-c2ccc(C3CN(Cc4cccc(C#N)n4)C3)nc2)c1OC` [Compound 320]: the IC50 in assay [1] (setting [4]) was 0.5 to 5 µM; in assay [3] (setting [4]), 500 to 5000 nM. This molecule also registered a Kd in assay [2] of 0.01 to 10 nM.

`CNC(=O)c1nnc(NC(=O)C2CC2)cc1Nc1cccc(-c2cnn([C@H]3C[C@H]([C@H](O)c4ccccn4)C3)c2)c1OC` (single isomer, unassigned) [Compound 397]: the IC50 is 5 to 100 µM in assay [1] (setting [4]) and 500 to 5000 nM in assay [3] (setting [4]). Further, in assay [2] (SPR, JAK2 JH2 domain), the dissociation constant Kd fell in the range of 0.01 to 10 nM.

Turning to `CNC(=O)c1nnc(NC(=O)C2CC2)cc1Nc1cccc(-c2cnn(C3CN(Cc4cccc(C#CCO)n4)C3)c2)c1OC` [Compound 255], the results for the IC50 in assay [1] (setting [4]) and in assay [3] (setting [4]) were 0.05 to 0.5 µM and 50 to 500 nM, respectively. Also, the equilibrium dissociation constant (Kd) in assay [2] fell in the range of 0.01 to 10 nM.

On to `CNC(=O)c1nnc(NC(=O)C2CC2)cc1Nc1cccc(-c2cc(C3CN(Cc4ccccn4)C3)n(C)n2)c1OC` [Compound 203], for which the concentration for half-maximal inhibition (IC50) in assay [1] (setting [4]) is 5 to 100 µM; in assay [3] (setting [4]) it was 5000 to 100000 nM. This molecule came in with a Kd in assay [2] of 50 to 500 nM.

For `CNC(=O)c1nnc(NC(=O)C2CC2)cc1Nc1cccc(-c2ccc(C(=O)N(C)[C@@H](C)c3cnn(C)c3)nc2)c1OC` (single isomer, unassigned) [Compound 116], the IC50 lay within 0.5 to 5 µM in assay [1] (TF1 JAK2 V617F) and 50 to 500 nM in assay [3] (TF1 JAK2 V617F). The same molecule registered a dissociation constant (Kd) in assay [2] (SPR, JAK2 JH2 domain) of 0.01 to 10 nM.

Take `CNC(=O)c1nnc(NC(=O)C2CC2)cc1Nc1cccc(-c2cnn(C3CN(Cc4cccc(C(C)=O)n4)C3)c2)c1OC` [Compound 307]: the IC50 in assay [1] (setting [4]) was in the range of 0.05 to 0.5 µM; in assay [3] (setting [4]) it was 50 to 500 nM. For the same molecule, the Kd in assay [2] lay within 0.01 to 10 nM.

With `CNC(=O)c1nnc(NC(=O)C2CC2)cc1Nc1ccc(C)c(-c2cn(C3CN(Cc4cccc(C)n4)C3)nn2)c1OC` [Compound 269], the IC50 in assay [1] (setting [4]) lay in the range of 0.5 to 5 µM; in assay [3] (setting [4]) it was 500 to 5000 nM. In assay [2], the Kd was in the range of 0.01 to 10 nM.

Consider `CNC(=O)c1nnc(NC(=O)C2CC2)cc1Nc1cccc(-c2cc(C3CN(Cc4cnn(C)c4)C3)nn2C)c1OC` [Compound 175], for which the IC50 in assay [1] (TF1 JAK2 V617F) was 5 to 100 µM; in assay [3] (TF1 JAK2 V617F), 5000 to 100000 nM. Further, the Kd in assay [2] (SPR, JAK2 JH2 domain) was 0.01 to 10 nM.

As to `CNC(=O)c1nnc(NC(=O)C2CC2)cc1Nc1cccc(-c2cnn(C3CN(Cc4cccc(C(C)(C)C#N)n4)C3)c2)c1OC` [Compound 277], the values for the IC50 in assay [1] (setting [4]) and in assay [3] (setting [4]) were 0.05 to 0.5 µM and 50 to 500 nM, respectively. In assay [2], this molecule displayed a Kd of 0.01 to 10 nM.

Take `CNC(=O)c1nnc(NC(=O)C2CC2)cc1Nc1cccc(-c2cnn(C3CN(C(C)c4cccc(C#N)n4)C3)c2)c1OC` (racemic) [Compound 227]: the IC50 was 0.5 to 5 µM in assay [1] (setting [4]) and 500 to 5000 nM in assay [3] (setting [4]). This molecule also showed a Kd in assay [2] of 0.01 to 10 nM.

On to `CNC(=O)c1nnc(NC(=O)C2CC2)cc1Nc1cccc(-c2cn(C3CN(Cc4ccccn4)C3)nc2C)c1OC` [Compound 184], for which the half-maximal inhibitory concentration (IC50) lay in the range of 0.5 to 5 µM in assay [1] (TF1 JAK2 V617F) and 500 to 5000 nM in assay [3] (TF1 JAK2 V617F). The molecule further returned a Kd in assay [2] (SPR, JAK2 JH2 domain) of 0.01 to 10 nM.

Regarding `CNC(=O)c1nnc(NC(=O)C2CC2)cc1Nc1cccc(-c2ccc(C(=O)N3CCc4cccnc4C3)nc2)c1OC` [Compound 108], the IC50 was in the range of 5 to 100 µM in assay [1] (TF1 JAK2 V617F) and 5000 to 100000 nM in assay [3] (TF1 JAK2 V617F). In assay [2] (SPR, JAK2 JH2 domain), this molecule had a Kd of 10 to 50 nM.

For orientation: IC50 means the point on the concentration scale where inhibition reaches its midpoint. In general, Kd refers to the concentration at which binding is half-saturated.

These data come from patent US20240368122A1, “JAK2 INHIBITORS AND METHODS OF USE THEREOF” (RELAY THERAPEUTICS, INC., priority 2021, published 2024).
